Measurements: US6455057B1, “Skin care composition” (Elizabeth Arden Co., div. of Conopco, Inc., priority 1999, dated 2002)
Values joined by “and” are separate entries in the source; they are usually repeats but may differ in a detail not shown here. Identical values can stand only once.

Key:
Format in all cases: cell-based
[1] = test system: decorin synthesis in human dermal fibroblasts; assay: Dot blot assay for decorin protein in dermal fibroblast conditioned medium
Procedure: (§1) Primary human foreskin fibroblasts at passage 2 (P2) were seeded into 12-well plates at 10000 cells/cm^2 and maintained for 24 hours in an atmosphere of 5% carbon dioxide and 4% oxygen in Dulbeccos Modified Eagles Medium (DMEM) supplemented with 10% foetal calf serum. After this time the cells were washed with serum free DMEM and then incubated in fresh serum free DMEM for a further 60 hours. The fibroblast monolayers were then washed again with serum free DMEM. Test reagents and vehicle controls were added to the cells in triplicate in a final volume of 0.4 ml/well fresh serum free DMEM and incubated for a further 24 hours. This fibroblast conditioned medium was either analysed immediately or snap frozen in liquid nitrogen and stored at −70° C. for future analysis. The cells were then counted and data from the dot-blot analysis subsequently standardised to cell number.
(§2) Samples of conditioned medium from dermal fibroblasts treated with vehicle (as a control) or test reagents were supplemented with 20 mM dithiothreitol (1:10 dilution of 200 mM stock solution) and 0.1% sodium dodecylsulphate (1:100 dilution of 10% stock solution), mixed well and then incubated at 75° C. for 2 minutes. A standard for the assay was generated by serial dilution of neat fibroblast conditioned medium from fibroblasts seeded at 10000 cells/cm^2 in a 175 cm^2 flask and maintained in serum free DMEM as described above.
Assay samples were subsequently applied in triplicate to a prewetted sheet of Immobilon-P transfer membrane using the 96-well Bio-Dot Apparatus from Bio-Rad as described in the manufacturers guidelines. Approximately 200 μl of medium was applied per well. The medium was allowed to filter through the membrane under gravity (30 minutes) after which the membrane was washed twice with PBS (200 μl). These PBS washes were allowed to filter through the membrane under gravity (2×15 minutes). The Bio-Dot apparatus was then attached to a vacuum manifold and a third and final PBS wash carried out under suction. The apparatus was disassembled, the membrane removed and quickly cut as required before being placed in blocking buffer overnight at 4° C. Membranes prepared for decorin analysis were blocked with 3% (w/v) BSA/0.1% (v/v) Tween 20 in PBS, whilst those for procollagen-I analysis were blocked with 5% (w/v) non fat dried milk powder/0.05% Tween 20 in PBS.
Following this the Immobilon strips were again washed with TBS/Tween 20 (3×5 minutes) before being allowed to dry in air at room temperature. The dried membranes were wrapped in cellophane and exposed to a Molecular Dynamics storage phosphor screen for 16-18 hours. At the end of this time the exposed screen was scanned by a phosphorimager (Molecular Dynamics Phosphorimager SF) using ImageQuant™ software. Dot intensity was assessed by computer-assisted image analysis using the quantification tools in ImageQuant™, standardised to cell number and the effects of various test reagents on decorin and procollagen-I synthesis were determined relative to a vehicle treated control value of 100 arbitrary units.

[2] = test system: ICAM production by human skin fibroblasts; assay: Fibroblast ICAM-1 assay (PMA-induced)
Procedure: Intracellular adhesion molecules (ICAM) and PEG2 production by human skin fibroblasts can be induced by the inflammatory stimulus PMA (phorbal myristate acetate). PMA represents an external stressor which induces oxidative stress and inflammatory responses in cells.
Primary human foreskin fibroblasts at passage 2 (P2) were seeded into 96-well plates at 10000 cells/well and maintained for 24 hours in an atmosphere of 5% carbon dioxide in Dulbeccos Modified Eagles Medium (DMEM) supplemented with 10% foetal calf serum. The test substances as indicated in the table 2 below were added to fresh cell media (DMEM, supplemented with 10% foetal calf serum) in dimethylsulphoxide and ethanol final concentration<1%) in triplicate and incubated for a further 24 hours. Phorbal myristate acetate (PMA) (Sigma) was added 10 nM to the media and the cells incubated for a further 24 hours. […] The fibroblasts/media were then analysed as described below immediately or snap frozen in liquid nitrogen and stored at −70° C. for future analysis. The cells were then counted and data from the dot-blot analysis subsequently standardised to cell number.
Media were discarded and cells washed with Dulbecco PBS. To the washed cells, 150 μl 0.1% Triton X-100 (Sigma) was added for 3 minutes to extract ICAM from cell membrane. The extracts were transferred to Eppendoff centrifuge tubes and centrifuged at 1000 g for 2 min to remove cell debris. A volume of 100 μl supernatant was used for ICAM assay. The soluble ICAM-1 was assessed with commercially available immunoenzymometric assay kit (R&D Systems). Concentrations of ICAM-1 in the samples were determined based on parallel running standard curve.

[3] = test system: procollagen-I synthesis in human dermal fibroblasts; assay: Dot blot assay for procollagen-I protein in dermal fibroblast conditioned medium; details: vehicle control = 100
Procedure: as §1, §2
Assay samples were subsequently applied in triplicate to a prewetted sheet of Immobilon-P transfer membrane using the 96-well Bio-Dot Apparatus from Bio-Rad as described in the manufacturers guidelines. Approximately 200 μl of medium was applied per well. The medium was allowed to filter through the membrane under gravity (30 minutes) after which the membrane was washed twice with PBS (200 μl). These PBS washes were allowed to filter through the membrane under gravity (2×15 minutes). The Bio-Dot apparatus was then attached to a vacuum manifold and a third and final PBS wash carried out under suction. The apparatus was disassembled, the membrane removed and quickly cut as required before being placed in blocking buffer overnight at 4° C. […]
Following this the Immobilon strips were again washed with TBS/Tween 20 (3×5 minutes) before being allowed to dry in air at room temperature. […] Dot intensity was assessed by computer-assisted image analysis using the quantification tools in ImageQuant™, standardised to cell number and the effects of various test reagents on decorin and procollagen-I synthesis were determined relative to a vehicle treated control value of 100 arbitrary units.

[4] = test system: PGE2 production by human skin fibroblasts; assay: Fibroblast PGE2 assay (PMA-induced); details: PMA 10 nM + genistein 1 μM, read-out: % of Inhibition Of Fibroblast PGE2 Levels
Procedure: Primary human foreskin fibroblasts at passage 2 (P2) were seeded into 96-well plates at 10000 cells/well and maintained for 24 hours in an atmosphere of 5% carbon dioxide in Dulbeccos Modified Eagles Medium (DMEM) supplemented with 10% foetal calf serum. The test substances as indicated in the table 2 below were added to fresh cell media (DMEM, supplemented with 10% foetal calf serum) in dimethylsulphoxide and ethanol final concentration<1%) in triplicate and incubated for a further 24 hours. Phorbal myristate acetate (PMA) (Sigma) was added 10 nM to the media and the cells incubated for a further 24 hours. […] The fibroblasts/media were then analysed as described below immediately or snap frozen in liquid nitrogen and stored at −70° C. for future analysis.
Volumes of 50 μl culture medium were taken for PGE2 assay after gently shaking the culture plate. PGE2 levels in the medium were determined with a Biotrak PGE2 immunoassay kit (Amersham, UK). The assay is based on the competition between unlabelled PGE2 in the sample and a fixed quantity of horseradish peroxidase labelled PGE2 for a limited amount of fixed PGE2 specific antibody. Concentrations of unlabelled sample PGE2 are determined according to a standard curve which was obtained at the same time.

SMILES: O=C(O[C@@H]1Cc2c(O)cc(O)cc2O[C@@H]1c1cc(O)c(O)c(O)c1)c1cc(O)c(O)c(O)c1 [EGCG, epigallocatechin gallate]
- Decorin ([1]; 0.005 μg/ml EGCG, vehicle control = 100): 118.4%
- Decorin ([1]; 0.05 μg/ml EGCG, vehicle control = 100): 111.7%
- Decorin ([1]; 0.5 μg/ml EGCG, vehicle control = 100): 120.2%
- % of inhibition of fibroblast ICAM production ([2]; PMA 10 nM + EGCG 10 μM): 14.4%

SMILES: CCCCCCCCCCC/C=C\CCCCC(=O)O [PA, petroselinic acid]
- Procollagen-I ([3]; 0.01 μM PA): 117.34%
- Procollagen-I ([3]; 0.1 μM PA): 90.94%
- Decorin ([1]; 0.01 μM PA, relative to vehicle treated control = 100 arbitrary units, separate experiments): 102.7% and 100.9% and 95.08% and 93.97% and 93.7% and 91.6%
- Decorin ([1]; 0.1 μM PA, vehicle control = 100): 100.3%

SMILES: O=c1c(-c2ccc(O)cc2)coc2cc(O)ccc12 [daidzein]
- Procollagen-I ([3]; 0.01 μM daidzein): 96.04%
- Decorin ([1]; 0.01 μM daidzein, vehicle control = 100): 92.83%

SMILES: O=C(O)c1cc(O)c(O)c(O)c1 [gallic acid]
- Decorin ([1]; 0.001 μg/ml gallic acid, vehicle control = 100): 96.6%

SMILES: O=c1c(-c2ccc(O)cc2)coc2cc(O)cc(O)c12 [genistein]
- Procollagen-I ([3]; 1 μM genistein): 101.74%
- Decorin ([1]; 1 μM genistein, vehicle control = 100): 99.75%
- inhibition at 1 µM [4]: 86.2%
- inhibition at 1 µM ([2]; Homo sapiens, Skin fibroblast, PMA 10 nM + genistein 1 μM): 30.6%

SMILES: O=c1c(O)c(-c2ccc(O)c(O)c2)oc2cc(O)cc(O)c12 [quercetin]
- Decorin ([1]; 1 μM quercetin, vehicle control = 100): 97.60%
- inhibition at 10 µM ([2]; Homo sapiens, Skin fibroblast, PMA 10 nM + quercetin 10 μM): 27.8%
